Measured values: publication PMC8243515 (JHEP Reports, 2021)
“Also recorded” adds a separate entry of the source. Read-outs that look alike come from different tables or passages of the source.

What was measured:
HBV [1] = test: microbe, parasite or virus in culture; format: cell-based, hepatitis B virus genotype D; details: for effect on p1 cell infection (phenotype): reference inhibitors, assay validation; for %Imax, p1 infection: percent maximum inhibition
HBV [2] = test: microbe, parasite or virus in culture; format: cell-based, hepatitis B virus genotype D; details: for Emax: read-out: %Imax; for p2 cells still infected at high inhibitor concentrations: high concentrations of late-phase reference inhibitors; for %Imax, p2 infection: percent maximum inhibition
HepG2-NTCPsec+ cells = test: Cell viability by automated nuclei counting; format: cell-based, human; details: hit confirmation DRC, 10-point serial dilutions starting at 25 μM
HBV [3] = details: read-out: Published EC50, cited from earlier work
NTCP [4] = molecular target: T1, NTCP (Homo sapiens, UniProt Q14973); test: Binding assay of Alexa633-labelled HBV preS1 peptide; details: for effect on preS1 peptide binding to NTCP: cytochalasin D tested up to 50 μM
T1 sequence (Q14973 1-349): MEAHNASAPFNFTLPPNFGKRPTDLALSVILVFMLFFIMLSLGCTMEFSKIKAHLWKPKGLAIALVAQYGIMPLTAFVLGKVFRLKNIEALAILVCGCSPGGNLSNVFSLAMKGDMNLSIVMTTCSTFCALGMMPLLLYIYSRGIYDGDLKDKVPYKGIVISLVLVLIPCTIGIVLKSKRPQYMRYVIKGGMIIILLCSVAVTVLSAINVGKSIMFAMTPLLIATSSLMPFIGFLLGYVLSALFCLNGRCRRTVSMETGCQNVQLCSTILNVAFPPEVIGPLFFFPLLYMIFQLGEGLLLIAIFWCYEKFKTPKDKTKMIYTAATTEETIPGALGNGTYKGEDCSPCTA

[5] = system: HBV preS1 peptide internalisation; test: Live-cell imaging of Alexa633-labelled preS1 peptide internalisation; format: cell-based; details: after transfer to 37°C, confocal live-cell imaging
SARS-CoV-2 [6] = format: cell-based
HIV-1 = format: cell-based, HIV-1 strain LAI; details: Fig. S3
HBV [7] = test: Time-of-addition experiments, HBV infection; format: cell-based, hepatitis B virus; details: pretreatment/cotreatment vs post-inoculation 1-7 dpi
SARS-CoV-2 [8] = details: virus-free, live-cell assay; cited from earlier work
NTCP [9] = molecular target: T1, NTCP; details: transiently NTCP-transfected U2OS cells; cited from earlier work
HBV [10] = test: Stably HBV replicating HepAD38 cells, supernatant HBV DNA by quantitative PCR; format: cell-based, hepatitis B virus; details: supernatant qPCR at 7 days post-treatment
HCV = format: cell-based
HBV and HDV = details: cited from earlier work
[11] = read-out: EC50, p1 infection, p1 cells, DRC of reference inhibitors
[12] = Hepatitis B virus, read-out: EC50 (μM), early HBV life cycle inhibitors

For IFNα, the “antiviral effect on early HBV life cycle steps” value (HBV [1]; p1 cells treated over several weeks, Fig. S5A) was “no or only insignificant antiviral effects” and the “antiviral effect on late HBV life cycle steps” value (HBV [2]) was “no or only insignificant antiviral effects”.
In the case of `CCOC(=O)C1=C(CN2CCOCC2)NC(c2nccs2)=NC1c1ccc(F)cc1Br` (stereo not drawn) [GLS4], the “HBcAg phenotype under CpAM treatment” value (HBV [1]; class II core protein allosteric modifiers, Fig. S4) is reported as “aggregated HBcAg phenotype”.
For `CC(C)(C)c1cc(C(=O)/C=C/c2ccc(C(=O)O)cc2)cc(C(C)(C)C)c1` [Ch 55], the “%Imax” value (HBV [2]; p2 inhibitor, hit confirmation DRC) was 99.9%, the EC50 (HBV [2]; p2 inhibitor, hit confirmation DRC, 10-point serial dilutions starting at 25 μM) was 3.21 µM and the CC50 (HepG2-NTCPsec+ cells) was greater than 25 µM.
`CCC(C)(C)C(=O)O[C@H]1C[C@@H](C)C=C2C=C[C@H](C)[C@H](CC[C@@H]3C[C@@H](O)CC(=O)O3)[C@H]21` [Simvastatin] showed an Emax (HBV [2]; Hepatitis B virus) of 99.9%.
Work on `Cc1c(C(=O)NN2CCCCC2)nn(-c2ccc(Cl)cc2Cl)c1-c1ccc(Cl)cc1` [Rimonabant] yielded an Emax (HBV [2]; Hepatitis B virus) of 99.4%.
With `O=C1Cc2ccccc2C(=O)N1O` [HID, N-hydroxyisoquinolinedione] the EC50 (HBV [1]; [11]) was greater than 50 µM, the “effect on p1 cell infection (phenotype)” value (HBV [1]) was “did not affect the infection status of p1 cells” and the “effect on p2 cell infection / infectivity of HBV progeny” value (HBV [2]; after supernatant transfer) was “reduced number of infected p2 cells”. For the same compound, the “p2 cells still infected at high inhibitor concentrations” value (HBV [2]) was 2–5%, the “%Imax, p2 infection” value (HBV [2]; p2 cells) was 99% and the EC50 (HBV [3]; System HepDES19, ref PMID 24858512) was 4.2 µM.
With `O=C(CN(c1cc(C(F)(F)F)ccc1Cl)S(=O)(=O)c1ccccc1)NCc1ccncc1` [CCC-0975] the “%Imax, p1 infection” value (HBV [1]; p1 cells) was 60%, the EC50 (HBV [1]; [11]) was roughly 5 µM and the “effect on p1 cell infection (phenotype)” value (HBV [1]) was “inhibited HBV infection in p1 and p2 cells”. For the same compound, the “effect on p2 cell infection / infectivity of HBV progeny” value (HBV [2]; after supernatant transfer) was “inhibited HBV infection in p1 and p2 cells”, the EC50 (HBV [2]; read-out: EC50, p2 infection (after supernatant transfer), p2 cells) was roughly 8 µM and the EC50 (HBV [3]; System HepDE19, ref PMID 22644022) was 10 µM.
Compound `C#CCC(Cc1cnc2nc(N)nc(N)c2n1)c1ccc(C(=O)N[C@@H](CCC(=O)O)C(=O)O)cc1` (stereo partly drawn) [Pralatrexate] has an Emax (HBV [2]; Hepatitis B virus) of 102%.
In the case of `Cc1nc2ccc(CN(C)c3ccc(C(=O)N[C@@H](CCC(=O)O)C(=O)O)s3)cc2c(=O)[nH]1` [Raltitrexed], the Emax (HBV [2]; Hepatitis B virus) is reported as 93.7%.
Compound `CC[C@]1(O)C[C@H]2CN(CCc3c([nH]c4ccccc34)[C@@](C(=O)OC)(c3cc4c(cc3OC)N(C=O)[C@H]3[C@@](O)(C(=O)OC)[C@H](OC(C)=O)[C@]5(CC)C=CCN6CC[C@]43[C@@H]65)C2)C1` [Vincristine] has an Emax (HBV [2]; Hepatitis B virus) of 96.9%.
In the case of `C=C1[C@@H](C)[C@H]2[C@H](Cc3ccccc3)NC(=O)[C@]23[C@H](OC(C)=O)/C=C/[C@@](C)(O)C(=O)[C@@H](C)C/C=C/[C@H]3[C@@H]1O` [Cytochalasin D, cytochalasin D], the EC50 (HBV [1]; [12]) is reported as 0.07 µM, the “Imax (%), early HBV life cycle inhibitors” value (HBV [1]; p1 cells) is reported as 86% and the “effect on preS1 peptide binding to NTCP” value (NTCP [4]) is reported as “did not prevent the binding”. For the same compound, the “effect on preS1 peptide binding to NTCP” value (NTCP [4]; listed as cytochalasin D) was “did not interfere with receptor–virus binding”, the “effect on internalisation of HBV preS1 peptide” value [5] was “prevented the internalisation of HBV; also recorded: partially reduced; also recorded: partial retention of the peptide at the plasma membrane” and the “effect on SARS-CoV-2 infection” value (SARS-CoV-2 [6]; Fig. S3) was “minor activity in both virus systems; also recorded: inhibits SARS-CoV-2 infection”. For the same compound, the “effect on HIV-1 infection” value (HIV-1) was “minor activity in both virus systems”, the “anti-HBV activity in time-of-addition experiments” value (HBV [7]) was “exhibited anti-HBV activity exclusively under the pretreatment/cotreatment conditions” and the “effect on SARS-CoV-2 cell entry” value (SARS-CoV-2 [8]) was “prevent SARS-CoV-2 cell entry”.
Work on `O=c1[nH]c(=O)n([C@H]2C[C@H](O)[C@@H](CO)O2)cc1F` [Floxuridine] yielded an Emax (HBV [2]; Hepatitis B virus) of 97.6%.
In the case of `O=C(Nc1cccc2c(=O)cc(-c3nnn[nH]3)oc12)c1ccc(OCCCCc2ccccc2)cc1` [Pranlukast, pranlukast], the EC50 (HBV [1]; [12]) is reported as 4.3 µM, the “Imax (%), early HBV life cycle inhibitors” value (HBV [1]; p1 cells) is reported as 92% and the EC50 (NTCP [4]) is reported as 7.6 µM. The “effect on preS1 peptide binding to NTCP” value (NTCP [4]) was “inhibited HBV preS1 binding”, the “effect on preS1 peptide binding to NTCP” value (NTCP [4]; listed as pranlukast) was “blocked the binding” and the “effect on SARS-CoV-2 infection” value (SARS-CoV-2 [6]; Fig. S3) was “only inhibited HIV-1; also recorded: but not pranlukast”. For the same compound, the “effect on HIV-1 infection” value (HIV-1) was “only inhibited HIV-1”, the “anti-HBV activity in time-of-addition experiments” value (HBV [7]) was “exhibited anti-HBV activity exclusively under the pretreatment/cotreatment conditions” and the “effect on NTCP bile acid transporter function” value (NTCP [9]) was “inhibits the bile acid transporter function”.
For `Cc1cccc([C@H](C)c2cnc[nH]2)c1C` [Dexmedetomidine, dexmedetomidine], the “Imax (%), late HBV life cycle inhibitors” value (HBV [2]) was 82%, the “effect on p2 cell infection / infectivity of HBV progeny” value (HBV [2]) was “interfered with the infectivity of HBV progeny; also recorded: mitigated the infectivity of secreted progeny HBV particles; also recorded: strongly suppresses the infectivity of secreted progeny HBV particles” and the EC50 (HBV [2]; Hepatitis B virus, read-out: EC50 (μM), late HBV life cycle inhibitors) was 6.2 µM. The EC50 (HBV [2]; read-out: EC50 (μM), late HBV life cycle inhibitors) was 6.23 µM, the “effect on HBV replication / HBV DNA secretion in HepAD38 cells” value (HBV [10]) was “without reducing HBV replication or genome secretion; also recorded: did not inhibit HBV DNA replication” and the “effect on HCV replication and secretion” value (HCV) was “no inhibition was observed; also recorded: do not interfere in the production and spread”. For the same compound, the “effect on SARS-CoV-2 infection” value (SARS-CoV-2 [6]) was “no inhibition was observed; also recorded: do not interfere in the production and spread”.
In the case of `CC(C)OC(=O)[C@H](C)N[P@](=O)(CO[C@H](C)Cn1cnc2c(N)ncnc21)Oc1ccccc1` [GS-7340], the EC50 (HBV [2]; Hepatitis B virus) is reported as less than 0.05 µM and the Emax (HBV [2]; Hepatitis B virus) is reported as 99.4%.
In the case of `Nc1ccn([C@@H]2CS[C@H](CO)O2)c(=O)n1` [LMV, lamivudine], the EC50 (HBV [1]; Hepatitis B virus, read-out: EC50, p1 infection) is reported as greater than 10 µM, the EC50 (HBV [2]; Hepatitis B virus, read-out: EC50 (μM), late HBV life cycle inhibitors, infectious HBV genotype D, p2 cells) is reported as 0.02 µM and the “p2 cells still infected at high inhibitor concentrations” value (HBV [2]) is reported as 2–5%. For the same compound, the “Imax (%), late HBV life cycle inhibitors” value (HBV [2]; p2 cells) was 98%.
For `COC(=O)C1=C(C)NC(c2ncc(F)cc2F)=N[C@H]1c1ccc(F)cc1Cl` [Bay41-4109], the “%Imax, p1 infection” value (HBV [1]; p1 cells) was 99%, the EC50 (HBV [1]; [11]) was 1.3 µM and the “%Imax, p2 infection” value (HBV [2]; p2 cells) was 99%.
`CC[C@@H]([C@H](C)O)n1ncn(-c2ccc(N3CCN(c4ccc(OC[C@@H]5CO[C@@](Cn6cncn6)(c6ccc(F)cc6F)C5)cc4)CC3)cc2)c1=O` [Posaconazole] gave an Emax (HBV [2]; Hepatitis B virus) of 96.4%.
With `CC(C)OC(=O)OCOP(=O)(CO[C@H](C)Cn1cnc2c(N)ncnc21)OCOC(=O)OC(C)C.O=C(O)/C=C/C(=O)O` [TDF, tenofovir disoproxil fumarate] the EC50 (HBV [1]; [11]) was greater than 50 µM, the “effect on p1 cell infection (phenotype)” value (HBV [1]) was “did not affect the infection status of p1 cells” and the “effect on p2 cell infection / infectivity of HBV progeny” value (HBV [2]; after supernatant transfer) was “reduced number of infected p2 cells”. For the same compound, the “p2 cells still infected at high inhibitor concentrations” value (HBV [2]) was 2–5%.
In the case of `COC(=O)Nc1nc2ccc(C(=O)c3cccs3)cc2[nH]1` [Nocodazole], the Emax (HBV [2]; Hepatitis B virus) is reported as 91.8%.
With `CN1c2cc3c(cc2N=C(c2ccc(C(=O)O)cc2)c2ccccc21)C(C)(C)CCC3(C)C` [LE 135] the “%Imax” value (HBV [1]; p1 inhibitor, hit confirmation DRC) was 94.5%, the EC50 (HBV [1]; p1 inhibitor, hit confirmation DRC, 10-point serial dilutions starting at 25 μM) was 11.7 µM and the CC50 (HepG2-NTCPsec+ cells) was greater than 25 µM.
For `O=C(O)P(=O)(O)O` [Foscarnet], the Emax (HBV [2]; Hepatitis B virus) was 94.2%.
For `COc1cc(C(=O)NS(=O)(=O)c2ccccc2C)ccc1Cc1cn(C)c2ccc(NC(=O)OC3CCCC3)cc12` [zafirlukast], the “concentration significantly inhibiting HBV and HDV infection” value (HBV and HDV) is given as 6 µM.
Compound `C=C1[C@H](CO)[C@@H](O)C[C@@H]1n1cnc2c(=O)[nH]c(N)nc21` [Entecavir] has an Emax (HBV [2]; Hepatitis B virus) of 96.7%.
For `Nc1ncn([C@H]2C[C@H](O)[C@@H](CO)O2)c(=O)n1` [Decitabine], the Emax (HBV [2]; Hepatitis B virus) was 91.9%.
`CC[C@H](C)C(=O)O[C@H]1CCC=C2C=C[C@H](C)[C@H](CC[C@@H]3C[C@@H](O)CC(=O)O3)[C@H]21` [Mevastatin] showed an Emax (HBV [2]; Hepatitis B virus) of 101%.
